Test results as given in patent US20250282820A1, “PEPTIDE COMPLEX HAVING TRKB BINDING ACTIVITY” (PEPTIDREAM INC, priority 2022, published 2025).
*1 amine or outer side, *2 acyl side, *3 side chain or, on linkers, in order; H or OH if unused. Where a SMILES comes first, the peptide text is derived from it. Bridges are numbered along the chain shown (N, C = ends). Roman numbers before positions name the chains, in order. [ ]: non-standard residue; d: D form. CO(CH2CH2O)13CH2CH2CO = O=C(CCOCCOCCOCCOCCOCCOCCOCCOCCOCCOCCOCCOCCOCCC(=O)[*:2])[*:1]; 3Pal = N[C@@H](Cc1cccnc1)C(=O)O

How the values were obtained:
TrkB = TrkB (Homo sapiens, UniProt Q16620); assay: PathHunter eXpress TrkB Functional Assay (phosphorylation of TrkB); format: cell-based; details: maximum signal induced by BDNF = 100%; stimulation for 3 hours
Outline: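 PathHunter TrkB cells, cultured 48 h, were stimulated 3 h with peptide or BDNF, then detection reagent added for 60 min at room temperature; luminescence read. Activity (%) scaled from unstimulated (0%) to maximal BDNF signal (100%); peptides tested over 0.006104-100 nM, 0.032-100 nM or 0.01-10 nM ranges.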

[1] = target: T1, Recombinant Human TrkB Fc Chimera Protein (Homo sapiens, UniProt Q16620); assay: Surface plasmon resonance (SPR), Biacore T200, single cycle kinetics; format: binding; details: for Kd: calculated by employing the lower theoretical limit of 0.00001 (1/s) for koff, read-out: Kd (dissociation constant) of binding to TrkB
T1 construct: purchased R&D Systems
Method: A CM3 sensor chip (Cytiva) was inserted into a Biacore T200 (Cytiva). Three priming runs were performed using running buffer: HBS-EP+ (Cytiva). The system was then equilibrated at a flow rate of 30 μL/min. After mixing in 50 μL each of a 60 mM EDC solution (Cytiva) and 650 mM NHS solution (Cytiva), the reaction was performed at a flow rate of 10 μL/min for 420 seconds. Then, 135 μL of a 30 ng/μL anti-human IgG (Fc) antibody (Cytiva) solution was prepared by dilution with a 10 mM acetic acid solution (pH 5.0), and the anti-human IgG (Fc) antibody was immobilized on the CM3 sensor chip by reacting it at a flow rate of 10 μL/min for 360 seconds. After immobilization, capping was performed by reacting it with a 1.0M ethanolamine solution (Cytiva) at a flow rate of 10 μL/min for 420 seconds. Each 200 nM Recombinant Human TrkA Fc Chimera Protein, Recombinant Human TrkB Fc Chimera Protein, Recombinant Human TrkC Fc Chimera Protein (R&D Systems) solution was reacted with the immobilized antibody at a flow rate of 10 μL/min for 60 seconds. A liquid prepared by dissolving each peptide at 10 mM in DMSO solution was diluted with running buffer to prepare a peptide-dissolved solution at a final concentration of 10 μM. Subsequently, 50 nM, 25 nM, 12.5 nM, 5 nM, and 2.5 nM peptide solutions were prepared. Using the samples described above, the kinetics of peptide against TrkA, TrkB, and TrkC were obtained by SPR measurements. After reacting a peptide with TrkA, TrkB, and TrkC, regeneration was performed using a reaction with a 3M MgCl solution at 10 μL/min for 180 seconds.
The kinetic evaluation model was Single Cycle Kinetics, and curve fitting was performed using Biacore T200 Evaluation Software Version 3.0 (Cytiva). The binding of peptides to TrkA, TrkB, and TrkC was evaluated by performing least-squares curve fitting on the obtained sensorgrams and calculating their Kd values (dissociation constants).

TrkB, sequence (Q16620 32-822): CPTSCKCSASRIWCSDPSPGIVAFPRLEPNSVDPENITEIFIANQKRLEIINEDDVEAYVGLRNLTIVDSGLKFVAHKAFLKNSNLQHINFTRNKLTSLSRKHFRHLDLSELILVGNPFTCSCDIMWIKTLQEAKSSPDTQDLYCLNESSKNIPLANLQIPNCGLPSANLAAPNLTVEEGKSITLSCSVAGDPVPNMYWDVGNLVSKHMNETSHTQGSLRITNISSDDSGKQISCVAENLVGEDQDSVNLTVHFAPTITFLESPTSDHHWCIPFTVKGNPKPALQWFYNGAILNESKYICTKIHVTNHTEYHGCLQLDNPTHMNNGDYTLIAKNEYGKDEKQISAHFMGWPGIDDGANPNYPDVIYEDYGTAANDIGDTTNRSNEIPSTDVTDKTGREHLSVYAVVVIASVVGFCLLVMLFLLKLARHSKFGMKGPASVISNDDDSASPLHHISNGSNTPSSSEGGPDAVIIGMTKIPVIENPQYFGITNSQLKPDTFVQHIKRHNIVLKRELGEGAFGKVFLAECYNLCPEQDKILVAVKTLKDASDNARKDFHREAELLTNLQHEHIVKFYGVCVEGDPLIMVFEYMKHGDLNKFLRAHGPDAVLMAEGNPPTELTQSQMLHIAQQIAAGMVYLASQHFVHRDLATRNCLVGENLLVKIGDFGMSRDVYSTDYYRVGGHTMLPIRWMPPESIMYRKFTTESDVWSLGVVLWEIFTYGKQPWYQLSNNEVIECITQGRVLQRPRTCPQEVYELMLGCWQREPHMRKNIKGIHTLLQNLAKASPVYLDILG

SMILES	Emax (TrkB) [%]	koff (dissociation rate constant) of binding to TrkB [1]	Kd [1] [nM]
CC(C)[C@@H]1NC(=O)[C@H](Cc2cccnc2)NC(=O)[C@H](CCC(=O)O)NC(=O)[C@H](CO)NC(=O)[C@H](Cc2ccc(O)cc2)NC(=O)[C@H]([C@@H](C)O)NC(=O)[C@@H]2CCCN2C(=O)[C@H](Cc2c[nH]c3ccccc23)NC(=O)[C@H](Cc2cccnc2)NC(=O)[C@H](Cc2ccc(O)cc2)NC(=O)[C@@H]2CCCN2C(=O)[C@H](CCC(=O)O)NC(=O)[C@H](Cc2ccccc2)NC(=O)CSC[C@@H](C(=O)NCC(=O)N[C@@H](CCCCNC(=O)CCOCCOCCOCCOCCOCCOCCOCCOCCOCCOCCOCCOCCOCCC(=O)NCCCC[C@H](NC(=O)CNC(=O)[C@@H]2CSCC(=O)N[C@@H](Cc3ccccc3)C(=O)N[C@@H](CCC(=O)O)C(=O)N3CCC[C@H]3C(=O)N[C@@H](Cc3ccc(O)cc3)C(=O)N[C@@H](Cc3cccnc3)C(=O)N[C@@H](Cc3c[nH]c4ccccc34)C(=O)N3CCC[C@H]3C(=O)N[C@@H]([C@@H](C)O)C(=O)N[C@@H](Cc3ccc(O)cc3)C(=O)N[C@@H](CO)C(=O)N[C@@H](CCC(=O)O)C(=O)N[C@@H](Cc3cccnc3)C(=O)N[C@@H](C(C)C)C(=O)N[C@@H](CCC(=O)O)C(=O)N2)C(N)=O)C(N)=O)NC(=O)[C@H](CCC(=O)O)NC1=O [compound 56] (I: {CH2CO}-FEPY[3Pal]WPTYSE[3Pal]VECGK-NH2 / II: {CH2CO}-FEPY[3Pal]WPTYSE[3Pal]VECGK-NH2; linker I:17-II:17 via CO(CH2CH2O)13CH2CH2CO; thioether I:N-I:15, II:N-II:15)	93	exceeded the measurement limit	≤ 0.1
CC(C)[C@@H]1NC(=O)[C@H](Cc2cccnc2)NC(=O)[C@H](CCC(=O)O)NC(=O)[C@H](CO)NC(=O)[C@H](Cc2ccc(O)cc2)NC(=O)[C@H]([C@@H](C)O)NC(=O)[C@@H]2CCCN2C(=O)[C@H](Cc2c[nH]c3ccccc23)NC(=O)[C@H](Cc2cccnc2)NC(=O)[C@H](Cc2ccc(O)cc2)NC(=O)[C@@H]2CCCN2C(=O)[C@H](CO)NC(=O)[C@H](Cc2ccccc2)NC(=O)CSC[C@@H](C(=O)NCC(=O)N[C@@H](CCCCNC(=O)CCOCCOCCOCCOCCOCCOCCOCCOCCOCCOCCOCCOCCOCCC(=O)NCCCC[C@H](NC(=O)CNC(=O)[C@@H]2CSCC(=O)N[C@@H](Cc3ccccc3)C(=O)N[C@@H](CO)C(=O)N3CCC[C@H]3C(=O)N[C@@H](Cc3ccc(O)cc3)C(=O)N[C@@H](Cc3cccnc3)C(=O)N[C@@H](Cc3c[nH]c4ccccc34)C(=O)N3CCC[C@H]3C(=O)N[C@@H]([C@@H](C)O)C(=O)N[C@@H](Cc3ccc(O)cc3)C(=O)N[C@@H](CO)C(=O)N[C@@H](CCC(=O)O)C(=O)N[C@@H](Cc3cccnc3)C(=O)N[C@@H](C(C)C)C(=O)N[C@@H](CCC(=O)O)C(=O)N2)C(N)=O)C(N)=O)NC(=O)[C@H](CCC(=O)O)NC1=O [compound 48] (I: {CH2CO}-FSPY[3Pal]WPTYSE[3Pal]VECGK-NH2 / II: {CH2CO}-FSPY[3Pal]WPTYSE[3Pal]VECGK-NH2; linker I:17-II:17 via CO(CH2CH2O)13CH2CH2CO; thioether I:N-I:15, II:N-II:15)	102	exceeded the measurement limit	≤ 0.1
